Measured values reported in PubChem BioAssay AID192 (DTP/NCI, 2004).
“And” between values parts separate entries of the source, which are not always exact repeats. Equal entries are not always repeated. Inconclusive results and toxic doses are left out. The calls were made as follows: active = survival T/C of 150% or more; inactive = T/C below 125% in these data.

Tested on: BDF1 mice, B16 melanoma ip, median survival T/C
Assay: NCI In Vivo Anticancer Drug Screen. Data for tumor model B16 Melanoma (intraperitoneal) in B6D2F1 (BDF1) mice
Details: endpoint: median survival time, higher = longer survival
Method: The antitumor activity of compounds was measured in mice bearing transplantable tumors. Survival or tumor size were measured and the results are expressed as the measurement made in the treated group (T) divided by the measurement made in the vehicle treated control group (C). The tumor model used in this assay is B16 Melanoma (intraperitoneal) in B6D2F1 (BDF1) mice

[1] = dose: 100.0 mg/kg/injection, schedule: Q04DX003 (ip), vehicle: Klucel (hydroxypropylcellulose) (HPC)
[2] = dose: 200.0 mg/kg/injection, schedule: Q04DX003 (ip), vehicle: Klucel (hydroxypropylcellulose) (HPC)
[3] = dose: 400.0 mg/kg/injection, schedule: Q04DX003 (ip), vehicle: Klucel (hydroxypropylcellulose) (HPC)

Measured: T/C

Cc1cc2nc(CO)[nH]c2cc1C
inactive: dose: 100.0 mg/kg/injection, schedule: Q01DX009 (ip), vehicle: Klucel (hydroxypropylcellulose) (HPC) 111 % of control | [1] 100 % of control | [2] 94 % of control | [3] 97 % of control

Cc1cn(C2CC(O)C(CO)O2)c(=O)[nH]c1=O (stereo unspecified)
inactive: dose: 12.5 mg/kg/injection, schedule: Q01DX009 (ip), vehicle: saline 88 % of control | dose: 32.0 mg/kg/injection, schedule: Q01DX009 (ip), vehicle: saline with Tween-80 111 % of control | dose: 32.0 mg/kg/injection, schedule: Q01DX009 (ip), vehicle: saline 95 % of control and 108 % of control | dose: 50.0 mg/kg/injection, schedule: Q03HX032 (ip), vehicle: saline 105 % of control | dose: 64.0 mg/kg/injection, schedule: Q01DX009 (ip), vehicle: saline with Tween-80 120 % of control | dose: 64.0 mg/kg/injection, schedule: Q01DX009 (ip), vehicle: saline 100 % of control and 101 % of control | dose: 100.0 mg/kg/injection, schedule: Q01DX009 (ip), vehicle: saline 103 % of control | dose: 100.0 mg/kg/injection, schedule: Q03HX032 (ip), vehicle: saline 97 % of control | dose: 128.0 mg/kg/injection, schedule: Q01DX009 (ip), vehicle: saline with Tween-80 120 % of control | dose: 128.0 mg/kg/injection, schedule: Q01DX009 (ip), vehicle: saline 98 % of control and 103 % of control | dose: 150.0 mg/kg/injection, schedule: Q02HX012 (ip), vehicle: saline 103 % of control | dose: 200.0 mg/kg/injection, schedule: Q01DX009 (ip), vehicle: saline 89 % of control | dose: 200.0 mg/kg/injection, schedule: Q02HX012 (ip), vehicle: saline 102 % of control | dose: 200.0 mg/kg/injection, schedule: Q03HX032 (ip), vehicle: saline 89 % of control | dose: 256.0 mg/kg/injection, schedule: Q01DX009 (ip), vehicle: saline with Tween-80 120 % of control | dose: 256.0 mg/kg/injection, schedule: Q01DX009 (ip), vehicle: saline 96 % of control and 102 % of control | dose: 300.0 mg/kg/injection, schedule: Q02HX012 (ip), vehicle: saline 102 % of control | dose: 400.0 mg/kg/injection, schedule: Q02HX012 (ip), vehicle: saline 102 % of control | dose: 400.0 mg/kg/injection, schedule: Q03HX032 (ip), vehicle: saline 92 % of control | dose: 512.0 mg/kg/injection, schedule: Q01DX009 (ip), vehicle: saline with Tween-80 91 % of control | dose: 512.0 mg/kg/injection, schedule: Q01DX009 (ip), vehicle: saline 104 % of control and 107 % of control | dose: 600.0 mg/kg/injection, schedule: Q02HX012 (ip), vehicle: saline 97 % of control

CCN1/C(=C/C=C/C=C\C=C\c2sc3ccc4ccccc4c3[n+]2CC)Sc2ccc3ccccc3c21
inactive: dose: 2.5 mg/kg/injection, schedule: Q01DX009 (ip), vehicle: saline with Tween-80 87 % of control | dose: 10.0 mg/kg/injection, schedule: Q01DX009 (ip), vehicle: saline with Tween-80 115 % of control | dose: 20.0 mg/kg/injection, schedule: Q01DX009 (ip), vehicle: saline with Tween-80 96 % of control

O=C(O)C1CCCCC1C(=O)Nc1cccc(C(F)(F)F)c1 (stereo unspecified)
inactive: dose: 12.5 mg/kg/injection, schedule: Q01DX009 (ip), vehicle: Klucel (hydroxypropylcellulose) (HPC) 114 % of control | dose: 25.0 mg/kg/injection, schedule: Q01DX009 (ip), vehicle: Klucel (hydroxypropylcellulose) (HPC) 119 % of control | dose: 50.0 mg/kg/injection, schedule: Q01DX009 (ip), vehicle: Klucel (hydroxypropylcellulose) (HPC) 113 % of control

Cc1ccc(NC(=O)c2ccc(Cl)cc2Cl)cc1Cl
inactive: [1] 102 % of control | [2] 92 % of control | [3] 95 % of control

On1cnc(=S)c2[nH]cnc21
inactive: dose: 100.0 mg/kg/injection, schedule: Q01DX009 (ip), vehicle: saline sonified 106 % of control | dose: 200.0 mg/kg/injection, schedule: Q01DX009 (ip), vehicle: saline sonified 104 % of control | dose: 400.0 mg/kg/injection, schedule: Q01DX009 (ip), vehicle: saline sonified 90 % of control

O=C(N/N=C/c1cccc(S(=O)(=O)O)c1)c1ccncc1
inactive: dose: 100.0 mg/kg/injection, schedule: Q01DX009 (ip), vehicle: saline with Tween-80 99 % of control | dose: 200.0 mg/kg/injection, schedule: Q01DX009 (ip), vehicle: saline with Tween-80 100 % of control | dose: 400.0 mg/kg/injection, schedule: Q01DX009 (ip), vehicle: saline with Tween-80 103 % of control
